# Measurements as given in publication PMC8535176, “Efficacy of epetraborole against Mycobacterium abscessus is increased with norvaline” (PLoS Pathogens, 2021).
# Like-named read-outs stand apart in the source and are kept apart here.
# Tests used:
# Assay in all cases: microbe, parasite or virus in culture
# C. glutamicum = test system: C. glutamicum; parameters: Whole-cell growth inhibition, dose-response MIC (MIC90) by resazurin microtiter assay (REMA), fluorescence read-out; details: Corynebacterium glutamicum
# B. cereus = test system: B. cereus; parameters: Whole-cell growth inhibition, dose-response MIC (MIC90) by resazurin microtiter assay (REMA), fluorescence read-out; details: Bacillus cereus
# M. avium hominissuis = test system: M. avium hominissuis; parameters: Whole-cell growth inhibition, dose-response MIC (MIC90) by resazurin microtiter assay (REMA), fluorescence read-out; details: Mycobacterium avium
# M. tuberculosis H37Rv = test system: T1, M. tuberculosis H37Rv; parameters: Whole-cell growth inhibition, dose-response MIC (MIC90) by resazurin microtiter assay (REMA), fluorescence read-out; details: Mycobacterium tuberculosis, H37RV
# T1 construct: H37Rv
# M. abscessus = test system: M. abscessus; parameters: Whole-cell growth inhibition, dose-response MIC (MIC90) by resazurin microtiter assay (REMA), fluorescence read-out; details: Mycobacteroides abscessus
# M. avium intracellulaire = test system: M. avium intracellulaire; parameters: Whole-cell growth inhibition, dose-response MIC (MIC90) by resazurin microtiter assay (REMA), fluorescence read-out; details: Mycobacterium avium
# M. tuberculosis Erdman = test system: T2, M. tuberculosis Erdman; parameters: Whole-cell growth inhibition, dose-response MIC (MIC90) by resazurin microtiter assay (REMA), fluorescence read-out; details: Mycobacterium tuberculosis, ERDMAN
# T2 construct: Erdman
# P. aeruginosa = test system: P. aeruginosa; parameters: Whole-cell growth inhibition, dose-response MIC (MIC90) by resazurin microtiter assay (REMA), fluorescence read-out; details: Pseudomonas aeruginosa
# E. coli = test system: E. coli; parameters: Whole-cell growth inhibition, dose-response MIC (MIC90) by resazurin microtiter assay (REMA), fluorescence read-out; details: Escherichia coli
# [1] = test system: T3, Mycobacteroides abscessus subsp. massiliense MT15_1748; parameters: species or system M. abscessus; Resazurin microtiter assay (REMA), fluorescence; MIC at 90% growth inhibition from Gompertz fit; details: 48 h, rough morphotype, read-out: MIC CFX
# T3 construct: MT15_1748
# Protocol: (§1) MIC values were determined using the resazurin microtiter assay (REMA). Cultures were grown to log phase (OD600 of 0.4–0.8) and diluted to OD600 of 0.005. Drugs were prepared in two-fold serial dilutions in 96-well plates with 90 μL of bacteria per well to a final volume of 100 μL. Plates were incubated at 37°C until drug-free wells were turbid (2 days for M. abscessus). Ten μL of resazurin (0.025% wt/vol) was added to each well. Once the drug-free wells turned pink (one doubling time), the fluorescence (ex/em 560nm/590nm) was measured using an Infinite F200 Tecan plate reader. Fluorescence intensities were converted to % viable cells relative to drug-free conditions and fit to the Gompertz equation using GraphPad Prism version 9. MIC values at 90% growth inhibition were determined from the nonlinear regression Gompertz equation. Next, we tested the in vitro activity of EPT against a panel of M. abscessus clinical isolates belonging to the three subspecies of the M. abscessus complex (M. abscessus, M. massiliense, and M. bolletii) with smooth and rough colony morphologies and with different drug susceptibility profiles to various antibiotics. There was no loss in activity against clinical isolates (range of 0.014–0.046 μg/mL) nor different morphologies (S2 Table). To determine the spectrum of activity of EPT, we curated a panel of various mycobacteria and representative gram-positive and gram-negative bacteria. […] Mycobacteria strains were grown in rolling [compound left out] culture at 37°C in Middlebrook 7H9 (Difco) supplemented with 10% albumin dextrose catalase (ADC), 0.2% glycerol, and 0.05% Tween 80 (7H9 complete) or on 7H10 agar plates supplemented with 10% oleic acid ADC and 0.5% glycerol at 37°C. When mentioned, the carbon source was modified from glycerol to acetate or the detergent Tween 80 was removed from the media. Bacillus cereus (clinical isolate), Corynebacterium glutamicum (ATCC 13032), Escherichia coli, and Pseudomonas aeruginosa PAO1 were grown in LB broth. HepG2 cells (ATCC HB-8065) were grown in Dulbecco’s modified Eagle’s medium (DMEM) with phenol red (from Gibco) supplemented with 10% fetal bovine serum at 37°C with 5% CO2.
# [2] = test system: T4, Mycobacteroides abscessus subsp. bolletii AV; parameters: species or system M. abscessus; Resazurin microtiter assay (REMA), fluorescence; MIC at 90% growth inhibition from Gompertz fit; details: 48 h, smooth morphotype
# T4 construct: AV
# Protocol: as §1
# [3] = test system: T5, Mycobacteroides abscessus subsp. massiliense MT15_1749; parameters: species or system M. abscessus; Resazurin microtiter assay (REMA), fluorescence; MIC at 90% growth inhibition from Gompertz fit; details: 48 h, rough morphotype
# T5 construct: MT15_1749
# Protocol: as §1
# [4] = test system: T6, Mycobacteroides abscessus subsp. bolletii Paris 167; parameters: species or system M. abscessus; Resazurin microtiter assay (REMA), fluorescence; MIC at 90% growth inhibition from Gompertz fit; details: 48 h, rough morphotype
# T6 construct: Paris 167
# Protocol: as §1
# [5] = test system: T7, Mycobacteroides abscessus subsp. abscessus MT16_1065; parameters: species or system M. abscessus; Resazurin microtiter assay (REMA), fluorescence; MIC at 90% growth inhibition from Gompertz fit; details: 48 h, smooth morphotype
# T7 construct: MT16_1065
# Protocol: as §1
# [6] = test system: T8, Mycobacteroides abscessus subsp. abscessus MT16_6490; parameters: species or system M. abscessus; Resazurin microtiter assay (REMA), fluorescence; MIC at 90% growth inhibition from Gompertz fit; details: 48 h, smooth morphotype
# T8 construct: MT16_6490
# Protocol: as §1
# [7] = test system: T9, Mycobacteroides abscessus subsp. abscessus ATCC 19977; parameters: species or system M. abscessus; Resazurin microtiter assay (REMA), fluorescence; MIC at 90% growth inhibition from Gompertz fit; details: ATCC19977, 48 h, rough morphotype, read-out: MIC RIF
# T9 construct: ATCC 19977
# Protocol: as §1
smiles,measurement,setting,value
CO[C@@]1(NC(=O)Cc2cccs2)C(=O)N2C(C(=O)O)=C(COC(N)=O)CS[C@@H]21 [Cefoxitin],MIC,C. glutamicum; read-out: MIC (µg/mL) / CFX,98 µg/mL
same,MIC,B. cereus; read-out: MIC (µg/mL) / CFX,> 98 µg/mL
same,MIC,M. avium hominissuis; read-out: MIC (µg/mL) / CFX,4.7 µg/mL
same,MIC,M. tuberculosis H37Rv; read-out: MIC (µg/mL) / CFX,> 98 µg/mL
same,MIC,M. abscessus; read-out: MIC (µg/mL) / CFX,12 µg/mL
same,MIC,M. avium intracellulaire; read-out: MIC (µg/mL) / CFX,0.42 µg/mL
same,MIC,M. tuberculosis Erdman; read-out: MIC (µg/mL) / CFX,> 98 µg/mL
same,MIC,P. aeruginosa; read-out: MIC (µg/mL) / CFX,> 98 µg/mL
same,MIC,E. coli; read-out: MIC (µg/mL) / CFX,4 µg/mL
same,MIC,[1],26 µg/mL
same,MIC,[2]; read-out: MIC CFX,15 µg/mL
same,MIC,[3]; read-out: MIC CFX,16 µg/mL
same,MIC,[4]; read-out: MIC CFX,16 µg/mL
same,MIC,[5]; read-out: MIC CFX,13 µg/mL
same,MIC,[6]; read-out: MIC CFX,13 µg/mL
CO[C@H]1/C=C/O[C@@]2(C)Oc3c(C)c(O)c4c(O)c(c(/C=N/N5CCN(C)CC5)c(O)c4c3C2=O)NC(=O)/C(C)=C\C=C\[C@H](C)[C@H](O)[C@@H](C)[C@@H](O)[C@@H](C)[C@H](OC(C)=O)[C@@H]1C [Rifampicin],MIC,C. glutamicum; read-out: MIC (µg/mL) / RIF,< 0.063 µg/mL
same,MIC,B. cereus; read-out: MIC (µg/mL) / RIF,< 0.063 µg/mL
same,MIC,M. avium hominissuis; read-out: MIC (µg/mL) / RIF,0.063 µg/mL
same,MIC,M. tuberculosis H37Rv; read-out: MIC (µg/mL) / RIF,0.0063 µg/mL
same,MIC,M. abscessus; read-out: MIC (µg/mL) / RIF,9.1 µg/mL
same,MIC,M. avium intracellulaire; read-out: MIC (µg/mL) / RIF,0.063 µg/mL
same,MIC,M. tuberculosis Erdman; read-out: MIC (µg/mL) / RIF,0.0065 µg/mL
same,MIC,P. aeruginosa; read-out: MIC (µg/mL) / RIF,15 µg/mL
same,MIC,E. coli; read-out: MIC (µg/mL) / RIF,3.9 µg/mL
same,MIC,[2]; read-out: MIC RIF,> 24 µg/mL
same,MIC,[3]; read-out: MIC RIF,6.7 µg/mL
same,MIC,[4]; read-out: MIC RIF,7.4 µg/mL
same,MIC,[7],1.8 µg/mL
same,MIC,[5]; read-out: MIC RIF,> 24 µg/mL
same,MIC,[6]; read-out: MIC RIF,> 24 µg/mL
